# According to ChEMBL document CHEMBL1152002, “Synthesis of inhibitors of -1,3-fucosyltransferase” (Bioorg Med Chem Lett, 1997):
# Legend:
# [1] = Compound was tested for the inhibition of Fucosyltransferase 4 alpha 1,3 at 2 uM GDP-fucose
# [2] = Compound was tested for the inhibition of Fucosyltransferase 4 alpha 1,3 at 8.5 uM GDP-fucose
compound,measurement,setting,value
C[C@H]1[C@@H](O)[C@H](O)[C@H](O)CN1Cc1ccccc1O[C@@H]1O[C@@H](CO)[C@H](O)[C@H](O)[C@@H]1O,IC50,[1],50 µM
same,IC50,[2],81 µM
C[C@H]1[C@@H](O)[C@H](O)[C@H](O)CN1CCCO[C@@H]1O[C@@H](CO)[C@H](O)[C@H](O)[C@@H]1O,IC50,[2],> 500 µM
C[C@H]1[C@@H](O)[C@H](O)[C@H](O)CN1CCCCO[C@@H]1O[C@@H](CO)[C@H](O)[C@H](O)[C@@H]1O,IC50,[2],233 µM
Nc1nc2c(ncn2[C@@H]2O[C@H](COP(=O)(O)OP(=O)(O)O)[C@@H](O)[C@H]2O)c(=O)[nH]1,IC50,[2],5 µM
C[C@@H]1NC[C@@H](O)[C@H](O)[C@@H]1O [DEOXYFUCONOJIRIMYCIN],IC50,[2],3500 µM
